# Reference: patent US20020193252A1, “Weeding method with sodium hydrogen carbonate” (The Hiraoka Environmental Science Laboratory, priority 2001, published 2002)
# Like-named read-outs stand apart in the source and are kept apart here.
# Experiments:
# [1] = system: Gramineae weeds except for grass (Zoysia japonica); conditions: spraying once a week
# [2] = saturated aqueous solution
# grass = conditions: 400 mL/m^2; for Killing Rate of Weeds: after 9 days from spraying
# From the text: (§1) A mixture of Equisetum arvense and Taraxacum having an average height of about 20 cm and grass having an average height of about 10 cm in a test field having an area of 0.5 m^2 in Yokohama-city, Kanagawa-prefecture, Japan were subjected to a field weeding test by spraying an aqueous solution of sodium hydrogen carbonate with a watering pot in the last third of October.
# (§2) An aqueous solution of sodium hydrogen carbonate having a concentration of 2.5 weight %, 5.0 weight %, 8.0 weight % and 10.0 weight %, respectively, was uniformly sprayed to a mixture of Equisetum arvense and Taraxacum and grass in an amount of 400 mL/m^2 for each. […] The killing degree of the weeds was measured by the naked eye after 9 days from spraying to determine the killing rate of weeds in the same manner as in EXAMPLE 1.
# [3] = system: Equisetum arvense and Taraxacum; conditions: 400 mL/m^2; for Killing Rate of Weeds: after 9 days from spraying
# From the text: as §1, §2
# Imperata cylindrica = conditions: 400 ml/m^2 sprayed on days 0,7,14,21, weeds cut on day 54
# From the text: (§3) A mixture of Equisetum arvense and Taraxacum having an average height of about 5 cm and Imperata cylindrica having an average height of about 5 cm in a test field having an area of 0.5 m^2 in Yokohama-city, Kanagawa-prefecture, Japan were subjected to the following field weeding test from the last third of July to the first third of November. […] Incidentally, the area ratio of weeds was assumed as 100% when the weeds proliferated to such an extent that they completely concealed the soil surface.
# (§4) A saturated aqueous solution of sodium hydrogen carbonate was sprayed to each test field in an amount of 400 ml/m^2 by a watering pot, and then sprayed in the same way after 7 days, 14 days and 21 days, respectively. The area ratio and average height of weeds were measured by the naked eye after 26 days from the start of spraying. The weeds were totally cut after 54 days from the start of spraying. Thereafter, the weeds were left to grow without spraying an aqueous solution of sodium hydrogen carbonate. The area ratio and average height of weeds were measured by the naked eye after 64 days, 67 days, 73 days, 78 days, 86 days, 91 days and 95 days, respectively, from the start of spraying. For comparison, a mixture of Equisetum arvense and Taraxacum and Imperata cylindrica, to which an aqueous solution of sodium hydrogen carbonate was not sprayed, were subjected to the same measurement with respect to an area ratio and an average height.
# [4] = system: Equisetum arvense and Taraxacum; conditions: 400 ml/m^2 sprayed on days 0,7,14,21, weeds cut on day 54
# From the text: as §3, §4
# [5] = system: Equisetaceae weeds, Leguminosae weeds and wide leaves weeds
# [6] = system: Weeds mainly consisting of Japanese nutmeg, Coix lacryma-jobi, Pueraria lobata and Solidago serotina; conditions: 70 g/L, 16 litter/m^2, 150 kgf/cm^2, 60 second/m^2; weeds about 60 cm; leaves turned yellow or black
# [7] = system: Weeds mainly consisting of Pueraria lobata, Cayratia japonica and Solidago serotina; conditions: 80° C., 140 g/L, 16 litter/m^2, 150 kgf/cm^2, 60 second/m^2; weeds about 60 cm; leaves turned black
# [8] = 2.5-10.0 weight % solution, last third of October
compound,measurement,setting,value
O=C([O-])O.[Na+] [sodium hydrogen carbonate],duration of spraying until weeds start to die,[1],2-3 weeks
same,pH,[2],about 8.2
same,time after spraying from which part of grass started to die with leaves turned yellow,grass; [8],2 to 3 days
same,Killing Rate of Weeds,grass; concentration 5.0 weight %,50%
same,Killing Rate of Weeds,grass; concentration 8.0 weight %,70%
same,Killing Rate of Weeds,grass; concentration 10.0 weight %,85%
same,Killing Rate of Weeds,grass; concentration 25 weight %,40%
same,time after spraying from which part of the weeds started to die with leaves turned black,[3]; [8],2 to 3 days
same,Killing Rate of Weeds,[3]; concentration 5.0 weight %,30%
same,Killing Rate of Weeds,[3]; concentration 8.0 weight %,65%
same,Killing Rate of Weeds,[3]; concentration 10.0 weight %,80%
same,Killing Rate of Weeds,[3]; concentration 25 weight %,10%
same,Area Ratio of Weeds,Imperata cylindrica; 0 days passed,5%
same,Average Height,Imperata cylindrica; 0 days passed,5 cm
same,Area Ratio of Weeds,Imperata cylindrica; 7 days passed,10%
same,Average Height,Imperata cylindrica; 7 days passed,15 cm
same,Area Ratio of Weeds,Imperata cylindrica; 14 days passed,30%
same,Average Height,Imperata cylindrica; 14 days passed,25 cm
same,Area Ratio of Weeds,Imperata cylindrica; 21 days passed,50%
same,Average Height,Imperata cylindrica; 21 days passed,45 cm
same,Area Ratio of Weeds,Imperata cylindrica; 26 days passed,50%
same,Average Height,Imperata cylindrica; 26 days passed,50 cm
same,Area Ratio of Weeds,Imperata cylindrica; 54 days passed,0%
same,Average Height,Imperata cylindrica; 54 days passed,0 cm
same,Area Ratio of Weeds,Imperata cylindrica; 64 days passed,0%
same,Average Height,Imperata cylindrica; 64 days passed,0 cm
same,Area Ratio of Weeds,Imperata cylindrica; 67 days passed,0%
same,Average Height,Imperata cylindrica; 67 days passed,0 cm
same,Area Ratio of Weeds,Imperata cylindrica; 73 days passed,0%
same,Average Height,Imperata cylindrica; 73 days passed,0 cm
same,Area Ratio of Weeds,Imperata cylindrica; 78 days passed,5%
same,Average Height,Imperata cylindrica; 78 days passed,5 cm
same,Area Ratio of Weeds,Imperata cylindrica; 86 days passed,5%
same,Average Height,Imperata cylindrica; 86 days passed,7 cm
same,Area Ratio of Weeds,Imperata cylindrica; 91 days passed,5%
same,Average Height,Imperata cylindrica; 91 days passed,7 cm
same,Area Ratio of Weeds,Imperata cylindrica; 95 days passed,5%
same,Average Height,Imperata cylindrica; 95 days passed,10 cm
same,Area Ratio of Weeds,[4]; 0 days passed,50%
same,Average Height,[4]; 0 days passed,5 cm
same,Area Ratio of Weeds,[4]; 7 days passed,5%
same,Average Height,[4]; 7 days passed,0 cm
same,Area Ratio of Weeds,[4]; 14 days passed,5%
same,Average Height,[4]; 14 days passed,0 cm
same,Area Ratio of Weeds,[4]; 21 days passed,5%
same,Average Height,[4]; 21 days passed,0 cm
same,Area Ratio of Weeds,[4]; 26 days passed,5%
same,Average Height,[4]; 26 days passed,0 cm
same,Area Ratio of Weeds,[4]; 54 days passed,0%
same,Average Height,[4]; 54 days passed,0 cm
same,Area Ratio of Weeds,[4]; 64 days passed,0%
same,Average Height,[4]; 64 days passed,0 cm
same,Area Ratio of Weeds,[4]; 67 days passed,0%
same,Average Height,[4]; 67 days passed,0 cm
same,Area Ratio of Weeds,[4]; 73 days passed,5%
same,Average Height,[4]; 73 days passed,5 cm
same,Area Ratio of Weeds,[4]; 78 days passed,10%
same,Average Height,[4]; 78 days passed,7 cm
same,Area Ratio of Weeds,[4]; 86 days passed,10%
same,Average Height,[4]; 86 days passed,10 cm
same,Area Ratio of Weeds,[4]; 91 days passed,20%
same,Average Height,[4]; 91 days passed,10 cm
same,Area Ratio of Weeds,[4]; 95 days passed,20%
same,Average Height,[4]; 95 days passed,10 cm
same,time after spraying until weeds start to die,[5]; in autumn,4 to 5 days
same,time after spraying until weeds start to die,[5]; in summer,1 to 2 days
same,state of weeds the next day of treatment,[6],killed
same,state of weeds the next day of treatment,[7],killed
